Measured values: patent publication US11596639B2, “Substituted indole Mcl-1 inhibitors” (Vanderbilt University, priority 2016, dated 2023)
pKi: −log10 of the molar value. Like-named read-outs stand apart in the source and are kept apart here.

Legend:
[1] = target: Mcl-1 (Homo sapiens (Human), UniProt Q07820); assay: Fluorescence polarization anisotropy (FPA) competition assay, FITC-Bak or FITC-Bim BH3 peptide; type: binding; conditions: read-out: Ki for Inhibition of Mcl-1 by FPA assay
[2] = tested on: H929 human cancer cell lines; assay: Cellular viability / proliferation (Cell TiterGlo, 72 h); type: cell-based
Outline: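 Plating is at 1,000 cells/well in 10% FBS medium; after 24 h, compound is added as a 2-fold series starting at 50 μM with under 1% DMSO.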

[3] = Homo sapiens, NCI-H929, 72 h, read-out: GI50 on cellular proliferation of H929 human cancer cell lines, H929 cells, 72 h, Cell TiterGlo, 10% FBS
[4] = H929 cells, 72 h, Cell TiterGlo, 10% FBS, read-out: GI50 on cellular proliferation of H929 human cancer cell lines

Mcl-1, sequence (Q07820 172-327): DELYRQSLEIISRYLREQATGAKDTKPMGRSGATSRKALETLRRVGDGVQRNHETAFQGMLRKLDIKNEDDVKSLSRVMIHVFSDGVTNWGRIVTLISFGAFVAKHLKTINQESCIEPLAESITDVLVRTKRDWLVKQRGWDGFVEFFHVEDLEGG

Compound | pKi [1] | GI50 [2, 3] | GI50 [2, 4]
Cc1cc(OCCCc2c3n(c4c(-c5c(C)n[nH]c5C)c(Cl)ccc24)CCCN(c2cc(C(=O)O)cc4c2ccn4C)C3=O)cc(C)c1Cl [Example 72, 4-(8-chloro-11-(3-(4-chloro-3,5-dimethylphenoxy)propyl)-7-(3,5-dimethyl-1H-pyrazol-4-yl)-1-oxo-4,5-dihydro-1H-[1,4]diazepino[1,2-a]indol-2(3H)-yl)-1-methyl-1H-indole-6-carboxylic acid] | > 9.00 | 4700 nM | –
Cc1ccnc(Cn2c(C(=O)O)cc3cc(C)cc(N4C[C@@H](C)n5c(c(CCCOc6cc(C)c(Cl)c(C)c6)c6ccc(Cl)c(-c7c(C)nn(C)c7C)c65)C4=O)c32)c1 [Example 456, (R)-7-(7-Chloro-10-(3-(4-chloro-3,5-dimethylphenoxy)propyl)-4-methyl-1-oxo-6-(1,3,5-trimethyl-1H-pyrazol-4-yl)-3,4-dihydropyrazino[1,2-a]indol-2(1H)-yl)-5-methyl-1-((4-methylpyridin-2-yl)methyl)-1H-indole-2-carboxylic acid] | > 9.00 | < 200 nM | –
Cc1cc(OCCCc2c3n(c4c(-c5c(C)nn(C)c5C)c(Cl)ccc24)[C@H](C)CN(c2cccc4c2cc(-c2nnco2)n4C)C3=O)cc(C)c1Cl [Example 347, (R)-7-Chloro-10-(3-(4-chloro-3,5-dimethylphenoxy)propyl)-4-methyl-2-(1-methyl-2-(1,3,4-oxadiazol-2-yl)-1H-indol-4-yl)-6-(1,3,5-trimethyl-1H-pyrazol-4-yl)-3,4-dihydropyrazino[1,2-a]indol-1(2H)-one] | 8.44 | 1900 nM | –
Cc1cc(OCCCc2c3n(c4c(-c5c(C)nc(CN(C)C)nc5C)c(Cl)ccc24)[C@H](C)CN(c2cn(C)c4ccc(C(=O)O)cc24)C3=O)cc(C)c1Cl [Example 451, (R)-3-(7-Chloro-10-(3-(4-chloro-3,5-dimethylphenoxy)propyl)-6-(2-((dimethylamino)methyl)-4,6-dimethylpyrimidin-5-yl)-4-methyl-1-oxo-3,4-dihydropyrazino[1,2-a]indol-2(1H)-yl)-1-methyl-1H-indole-5-carboxylic acid] | > 9.00 | < 200 nM | –
Cc1cc(OCCCc2c3n(c4c(-c5c(C)nn(C)c5C)c(Cl)ccc24)[C@H](C)CN(c2cccc4c2cc(C(=O)O)n4C(C)C)C3=O)cc(C)c1Cl [Example 197, (R)-4-(7-Chloro-10-(3-(4-chloro-3,5-dimethylphenoxy)propyl)-4-methyl-1-oxo-6-(1,3,5-trimethyl-1H-pyrazol-4-yl)-3,4-dihydropyrazino[1,2-a]indol-2(1H)-yl)-1-isopropyl-1H-indole-2-carboxylic acid] | > 9.00 | 670 nM | –
Cc1cc(OCCCc2c3n(c4c(-c5c(C)ncnc5C)c(Cl)ccc24)[C@H](C)CN(c2cccc4cc(C(=O)O)cnc24)C3=O)cc(C)c1Cl [Example 227, 8-[(4R)-7-chloro-10-[3-(4-chloro-3,5-dimethyl-phenoxy)propyl]-6-(4,6-dimethylpyrimidin-5-yl)-4-methyl-1-oxo-3,4-dihydropyrazino[1,2-a]indol-2-yl]quinoline-3-carboxylic acid] | > 9.00 | 1300 nM | –
Cc1cc(OCCCc2c3n(c4c(-c5c(C)nn(C)c5C)c(Cl)ccc24)[C@H](C)CN(c2cn(C)c4ccc(C(=O)NO)cc24)C3=O)cc(C)c1Cl [Example 361, (R)-3-(7-Chloro-10-(3-(4-chloro-3,5-dimethylphenoxy)propyl)-4-methyl-1-oxo-6-(1,3,5-trimethyl-1H-pyrazol-4-yl)-3,4-dihydropyrazino[1,2-a]indol-2(1H)-yl)-N-hydroxy-1-methyl-1H-indole-5-carboxamide] | 8.70 | 290 nM | –
COc1ccc(N2C[C@@H](C)n3c(c(CCCOc4cc(C)c(Cl)c(C)c4)c4ccc(Cl)c(-c5c(C)nn(C)c5C)c43)C2=O)c2c1cc(C(N)=O)n2Cc1ccccn1 [Example 466, (R)-7-(7-Chloro-10-(3-(4-chloro-3,5-dimethylphenoxy)propyl)-4-methyl-1-oxo-6-(1,3,5-trimethyl-1H-pyrazol-4-yl)-3,4-dihydropyrazino[1,2-a]indol-2(1H)-yl)-4-methoxy-1-(pyridin-2-ylmethyl)-1H-indole-2-carboxamide] | 8.74 | 300 nM | –
Cc1cc(N2C[C@@H](C)n3c(c(CCCOc4cc(C)c(Cl)c(C)c4)c4ccc(Cl)c(-c5c(C)nn(CCN6CCCC6)c5C)c43)C2=O)c2c(c1)cc(C(=O)O)n2C [Example 463, (R)-7-(7-Chloro-10-(3-(4-chloro-3,5-dimethylphenoxy)propyl)-6-(3,5-dimethyl-1-(2-(pyrrolidin-1-yl)ethyl)-1H-pyrazol-4-yl)-4-methyl-1-oxo-3,4-dihydropyrazino[1,2-a]indol-2(1H)-yl)-1,5-dimethyl-1H-indole-2-carboxylic acid] | 8.68 | 290 nM | –
Cc1cc(OCCCc2c3n(c4c(-c5c(C)nc(CN6CCCC6)nc5C)c(Cl)ccc24)[C@H](C)CN(c2cn(C)c4ccc(C(=O)O)cc24)C3=O)cc(C)c1Cl [Example 390, (R)-3-(7-Chloro-10-(3-(4-chloro-3,5-dimethylphenoxy)propyl)-6-(4,6-dimethyl-2-(pyrrolidin-1-ylmethyl)pyrimidin-5-yl)-4-methyl-1-oxo-3,4-dihydropyrazino[1,2-a]indol-2(1H)-yl)-1-methyl-1H-indole-5-carboxylic acid] | 8.64 | 340 nM | –
Cc1cc(OCCCc2c3n(c4c(-c5c(C)nn(C)c5C)c(Cl)ccc24)CCCN(c2cc(C(=O)O)c4cnn(CCN5CCOCC5)c4c2)C3=O)cc(C)c1Cl [Example 14, 6-[8-Chloro-11-[3-(4-chloro-3,5-dimethyl-phenoxy)propyl]-1-oxo-7-(1,3,5-trimethylpyrazol-4-yl)-4,5-dihydro-3H-[1,4]diazepino[1,2-a]indol-2-yl]-1-(2-morpholinoethyl)indazole-4-carboxylic acid] | > 9.00 | 3200 nM | –
(R)-3-(7-chloro-10-(3-(4-chloro-3,5-dimethylphenoxy)propyl)-6-(3,5-dimethyl-1-((1-methylpiperidin-4-yl)methyl)-1H-pyrazol-4-yl)-4-methyl-1-oxo-3,4-dihydropyrazino[1,2-a]indol-2(1H)-yl)-1-methyl-1H-indole-5-carboxylic acid [Example 146] | 8.40 | – | 2400 nM
Cc1noc(-c2ccc3c(c2)c(N2C[C@@H](C)n4c(c(CCCOc5cc(C)c(Cl)c(C)c5)c5ccc(Cl)c(-c6c(C)ncnc6C)c54)C2=O)cn3C)n1 [Example 395, (R)-7-Chloro-10-(3-(4-chloro-3,5-dimethylphenoxy)propyl)-6-(4,6-dimethylpyrimidin-5-yl)-4-methyl-2-(1-methyl-5-(3-methyl-1,2,4-oxadiazol-5-yl)-1H-indol-3-yl)-3,4-dihydropyrazino[1,2-a]indol-1(2H)-one] | 8.66 | 860 nM | –
Cc1cc(N2C[C@@H](C)n3c(c(CCCOc4cc(C)c(Cl)c(C)c4)c4ccc(Cl)c(-c5c(C)nn(C)c5C)c43)C2=O)c2c(c1)cc(C(=O)O)n2Cc1ccccn1 [Example 295, 7-[(4R)-7-chloro-10-[3-(4-chloro-3,5-dimethyl-phenoxy)propyl]-4-methyl-1-oxo-6-(1,3,5-trimethylpyrazol-4-yl)-3,4-dihydropyrazino[1,2-a]indol-2-yl]-5-methyl-1-(2-pyridylmethyl)indole-2-carboxylic acid] | > 9.00 | < 200 nM | –
Cc1cc(OCCCc2c3n(c4c(-c5c(C)nn(C)c5C)c(Cl)ccc24)[C@H](C)CN(c2cccc4cc(C(N)=O)n(Cc5ccccn5)c24)C3=O)cc(C)c1Cl [Example 385, (R)-7-(7-Chloro-10-(3-(4-chloro-3,5-dimethylphenoxy)propyl)-4-methyl-1-oxo-6-(1,3,5-trimethyl-1H-pyrazol-4-yl)-3,4-dihydropyrazino[1,2-a]indol-2(1H)-yl)-1-(pyridin-2-ylmethyl)-1H-indole-2-carboxamide] | 8.39 | 510 nM | –
Cc1cc(OCCCc2c3n(c4c(-c5c(C)nn(C)c5C)c(Cl)ccc24)[C@H](C)CN(c2ccnc4c(C(=O)O)cccc24)C3=O)cc(C)c1Cl [Example 253, (R)-4-(7-Chloro-10-(3-(4-chloro-3,5-dimethylphenoxy)propyl)-4-methyl-1-oxo-6-(1,3,5-trimethyl-1H-pyrazol-4-yl)-3,4-dihydropyrazino[1,2-a]indol-2(1H)-yl)quinoline-8-carboxylic acid] | 8.92 | 1100 nM | –
Cc1cc(OCCCc2c3n(c4c(-c5c(C)nn(C)c5C)c(Cl)ccc24)[C@H](C)CN(c2cc(OCc4ccccc4)cc4c2cc(C(=O)O)n4C)C3=O)cc(C)c1Cl [Example 297, (P, R)-6-(benzyloxy)-4-(7-chloro-10-(3-(4-chloro-3,5-dimethylphenoxy)propyl)-4-methyl-1-oxo-6-(1,3,5-trimethyl-1H-pyrazol-4-yl)-3,4-dihydropyrazino[1,2-a]indol-2(1H)-yl)-1-methyl-1H-indole-2-carboxylic acid] | 8.62 | – | 7900 nM
Cc1cc(OCCCc2c3n(c4c(-c5c(C)nn(C)c5C)c(Cl)ccc24)[C@H](C)CN(c2cn(C)c4ccc(-c5ncn(CC(C)C)n5)cc24)C3=O)cc(C)c1Cl [Example 454, (R)-7-Chloro-10-(3-(4-chloro-3,5-dimethylphenoxy)propyl)-2-(5-(1-isobutyl-1H-1,2,4-triazol-3-yl)-1-methyl-1H-indol-3-yl)-4-methyl-6-(1,3,5-trimethyl-1H-pyrazol-4-yl)-3,4-dihydropyrazino[1,2-a]indol-1(2H)-one] | 8.46 | 2100 nM | –
